Source: ChEMBL document CHEMBL1201862, “PubChem BioAssay data set” (2004)
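Method: 48-hour compound exposure of cells in 96-well plates, five concentrations, linear interpolation of endpoints. GI50: concentration for 50% inhibition of growth.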 Calls of active or inactive are those of the source. Rule as the data show it: active = GI50 up to about 1.1 µM and inactive = higher.

Tests used:
Experiment in all cases: DTP human tumour cell line panel, 48 h
[1] = system: COLO 205
[2] = system: SW-620
[3] = system: SNB-19
[4] = system: ACHN
[5] = system: K562
[6] = system: TK-10
[7] = system: MOLT-4
[8] = system: Malme-3M
[9] = system: SK-MEL-2
[10] = system: RPMI-8226
[11] = system: IGROV-1
[12] = system: EKVX
[13] = system: SK-OV-3
[14] = system: SK-MEL-28
[15] = system: SF-539
[16] = system: CAKI-1
[17] = system: LOX IMVI

Measured: GI50

Cn1cc2ccccc2c1-c1nc(F)nc(Oc2ccc3c(c2)CC[C@@H]2C3CC[C@@]3(C)C2C[C@H](O)[C@@H]3O)n1 (some centres not stated)
inactive: [1] 17.7 µM | [2] 4.14 µM | [3] 13.8 µM | [4] 20.2 µM | [5] 18.7 µM | [6] 20.4 µM | [7] 5.43 µM | [8] 24.8 µM | [9] 13 µM | [10] 16.7 µM | [11] 20.7 µM | [12] 17.7 µM | [13] 21.9 µM | [14] 19.7 µM | [15] 13.5 µM | [16] 18.1 µM

CCOC(=O)CC(NCc1ccc(/N=C/c2nc3ccc(C(F)(F)F)cc3nc2-c2ccccc2)cc1)C(=O)OCC (configuration not stated)
inactive: [1] > 100 µM | [2] > 100 µM | [3] 27.9 µM | [4] > 58.6 µM | [5] > 100 µM | [6] 23.3 µM | [7] > 100 µM | [8] > 100 µM | [17] > 100 µM | [9] > 47.3 µM | [10] > 100 µM | [11] > 63.1 µM | [12] > 69.5 µM | [13] 29 µM | [14] > 100 µM | [15] 17.9 µM | [16] > 100 µM

NC(=O)c1ccccc1NC(=O)C(=O)Cc1nc2ccccc2nc1O
inactive: [1] > 100 µM | [2] > 100 µM | [3] > 100 µM | [4] > 100 µM | [5] > 100 µM | [6] > 100 µM | [7] > 100 µM | [8] > 100 µM | [17] > 100 µM | [9] > 100 µM | [10] > 100 µM | [11] > 100 µM | [12] > 100 µM | [13] > 100 µM | [14] > 100 µM | [15] 48.5 µM | [16] > 100 µM

COc1cccc(C2=NC(C(C)C)CO2)c1OC (configuration not stated)
inactive: [1] > 100 µM | [2] > 100 µM | [3] > 100 µM | [4] > 100 µM | [5] > 100 µM | [6] > 100 µM | [7] > 100 µM | [8] > 100 µM | [17] > 100 µM | [9] > 100 µM | [10] > 100 µM | [11] > 100 µM | [12] > 100 µM | [13] > 100 µM | [14] > 100 µM | [15] > 100 µM | [16] > 100 µM

COC(=O)C(=O)C(C(=O)C(=O)Nc1cccc(C(C)=O)c1)c1nc2ccc([N+](=O)[O-])cc2nc1O (configuration not stated)
inactive: [1] > 100 µM | [2] > 100 µM | [3] > 100 µM | [4] > 100 µM | [5] > 100 µM | [6] > 100 µM | [7] > 100 µM | [8] > 100 µM | [17] > 100 µM | [9] > 100 µM | [10] > 100 µM | [11] > 100 µM | [12] > 100 µM | [13] > 100 µM | [14] > 100 µM | [15] > 100 µM | [16] > 100 µM

COC(=O)[C@H]1C2CC[C@@H]3C45C[C@@H](c6ccoc6)O[C@@H]4O[C@@H](O2)C31CCC5C (some centres not stated)
inactive: [1] > 100 µM | [2] > 100 µM | [3] > 100 µM | [4] > 100 µM | [5] 32.1 µM | [6] > 100 µM | [7] 69.7 µM | [8] > 100 µM | [17] > 100 µM | [9] 71.1 µM | [10] > 100 µM | [11] > 100 µM | [12] 92.3 µM | [13] > 100 µM | [15] > 100 µM | [16] > 100 µM

C[N+](C)(C)CC(=O)N/N=C(\C(=O)NC1=C(Cl)C(=O)c2ccccc2C1=O)C(C#N)c1csc(-c2ccc([N+](=O)[O-])cc2)n1 (configuration not stated)
inactive: [1] > 100 µM | [2] > 100 µM | [3] > 100 µM | [4] > 100 µM | [5] > 100 µM | [6] > 100 µM | [7] > 100 µM | [8] > 100 µM | [17] > 100 µM | [9] > 100 µM | [10] > 100 µM | [11] > 100 µM | [12] 48.2 µM | [13] > 100 µM | [14] > 100 µM | [15] > 100 µM | [16] > 100 µM

O=C(Nc1ccc(C(F)(F)F)cc1[N+](=O)[O-])C(=O)C1NC(=S)NC1=O (configuration not stated)
inactive: [1] 13.5 µM | [2] > 100 µM | [3] > 100 µM | [4] > 100 µM | [5] > 100 µM | [6] > 100 µM | [7] > 100 µM | [8] > 100 µM | [17] > 100 µM | [9] > 100 µM | [10] > 100 µM | [11] > 100 µM | [12] 4.86 µM | [13] > 100 µM | [14] > 100 µM | [15] > 100 µM | [16] 54.1 µM

CN/N=C(/CC(=O)c1sc(NNC(C)=O)nc1C)C(=O)Nc1ccc(OC)cc1OC
inactive: [1] > 100 µM | [2] > 100 µM | [3] > 100 µM | [4] > 100 µM | [5] > 100 µM | [6] > 100 µM | [7] > 100 µM | [8] > 100 µM | [17] > 100 µM | [9] > 100 µM | [10] > 100 µM | [11] > 100 µM | [12] 59.7 µM | [14] > 100 µM | [15] > 100 µM | [16] > 100 µM

C=C1C(=O)OC2/C=C(\C)C(O)/C=C\C(C)(O)CC(OC(=O)/C(C)=C/C)C12 (configuration not stated)
inactive: [1] 15.3 µM | [2] 17.3 µM | [3] > 39.6 µM | [4] 22.4 µM | [5] 9.64 µM | [6] > 48.4 µM | [7] 4.29 µM | [8] 21.4 µM | [17] 16.2 µM | [9] 19.7 µM | [10] > 39.5 µM | [11] > 100 µM | [12] 30.1 µM | [13] > 100 µM | [14] 18.3 µM | [15] 14.1 µM | [16] 23.6 µM

COC(=O)/C=C(C)/C=C/c1cc(C(C)=O)c(C)o1
inactive: [2] > 100 µM | [3] > 100 µM | [4] > 100 µM | [5] 62.1 µM | [7] 62.5 µM | [8] > 100 µM | [17] > 100 µM | [9] > 100 µM | [10] 54.7 µM | [11] > 100 µM | [12] 51.9 µM | [13] > 100 µM | [15] > 100 µM | [16] > 100 µM

C/C(COc1ccccc1)=N\NC(N)=S
inactive: [1] > 100 µM | [2] > 100 µM | [4] > 100 µM | [5] > 100 µM | [6] > 100 µM | [7] > 100 µM | [8] > 100 µM | [17] > 100 µM | [9] > 100 µM | [10] > 100 µM | [11] > 100 µM | [12] > 100 µM | [13] > 100 µM | [14] > 100 µM | [15] 90.4 µM | [16] > 100 µM
